Results: patent US20240165259A1, “BIOORTHOGONAL REACTION SUITABLE FOR CLICK/UNCLICK APPLICATIONS” (DANA-FARBER CANCER INSTITUTE, INC., priority 2021, published 2024)

Molecular target: T1, HaloTag protein (Rhodococcus rhodochrous, UniProt P0A3G2, A155T/A167V/A172T/A224E/C128F/C176G/D78G/E160K/E257K/H272N/K175M/K195N/L47V/L88M/N227D/S58T/T264A/Y273L/Y87F)
T1 construct: made in house; host or cells: E. coli (the text prints transformation into DH5a; BL21(DE3) was also purchased)
Assay: HaloTag protein labeling, in-gel fluorescence (time- and concentration-dependent)
Type: biochemical
Conditions: HaloTag protein conjugated to alkyne 21′, 200 μM 22′, room temperature
Protocol: The viability of the reaction was evaluated both in vitro and in cells (FIG. 14A-FIG. 14B). Purified recombinant HaloTag protein (Los et al., ACS Chem. Biol. 3(6):373-382 (2008); Murrey et al., J. Am. Chem. Soc. 137(35):11461-11475 (2015)) was incubated with HaloTag linker-conjugated difluoropropargyl ether 21′ for 10 minutes at room temperature in pH 7.0 phosphate buffer to provide alkyne-conjugated protein. This protein was then treated with 200 μM TAMRA-N-methylhydroxylamine 22′ and analyzed at various time points by in-gel fluorescence.
Buffer A: pH 7.0, 50 mM NaH2PO4, 20 mM NaCl
A stock solution of HaloTag® protein (15.3 μL, 2.01 mg/mL in buffer A) was added to 29.7 μL of buffer A to prepare a HaloTag® working solution (solution A, 19.7 μM, 45 μL). […]
A solution of alkyne 21′ in DMSO (700 μM) was added to reactions C (0.22 μL) and D (1.10 μL). […] In-gel fluorescence was imaged with a Typhoon™ FLA 9500 (GE) at 532 nm with a photomultiplier tube (PMT) setting of 500 V. The experiment was carried out in triplicate (FIG. 21A-FIG. 21B). […]
A solution of alkyne 21′ in DMSO (700 μM) was added to reactions C (0.22 μL) and D (0.88 μL). […] In-gel fluorescence was imaged with a Typhoon™ FLA 9500 (GE) at 532 nm with a photomultiplier tube (PMT) setting of 500 V. The experiment was carried out in triplicate (FIG. 22A-FIG. 22B).

T1 sequence (P0A3G2 other isoform, or with tags, fused parts or gaps with the stated changes): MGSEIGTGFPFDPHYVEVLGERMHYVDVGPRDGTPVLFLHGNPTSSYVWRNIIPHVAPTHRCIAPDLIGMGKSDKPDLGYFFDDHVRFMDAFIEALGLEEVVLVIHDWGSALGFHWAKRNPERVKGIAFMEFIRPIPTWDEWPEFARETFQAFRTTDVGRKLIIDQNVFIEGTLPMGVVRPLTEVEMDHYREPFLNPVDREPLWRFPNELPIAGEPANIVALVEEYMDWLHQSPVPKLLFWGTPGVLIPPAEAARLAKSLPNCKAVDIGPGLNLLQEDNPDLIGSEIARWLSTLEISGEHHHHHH

## CN(O)CCOCCNC(=O)c1ccc2c(c1)C1(OC2=O)c2ccc(N(C)C)cc2Oc2cc(N(C)C)ccc21 [compound 13, 3′,6′-bis(dimethylamino)-N-(2-(2-(hydroxy(methyl)amino)ethoxy)ethyl)-3-oxo-3H-spiro[isobenzofuran-1,9′-xanthene]-6-carboxamide]
  time at which fluorophore-labeled protein was observed: ≤ 1 min
